Test results reported in ChEMBL document CHEMBL1909046, “DrugMatrix in vitro pharmacology data”.

Key:
[1] = target: Sodium-dependent noradrenaline transporter (Homo sapiens, UniProt P23975); test: DRUGMATRIX: Norepinephrine Transporter radioligand binding (ligand: [125I] RTI-55); format: cell membranes, MDCK, Membrane; conditions: mdck, Not Active = under 50% inhibition at 10 µM
Cytochrome P450 1A2 = target: T1, Cytochrome P450 1A2 (Homo sapiens, UniProt P05177); conditions: bti-tn-5b1-4; also: in other assays of this panel Not Active means under 50% inhibition at 10 µM
T1 sequence (P05177 whole entry): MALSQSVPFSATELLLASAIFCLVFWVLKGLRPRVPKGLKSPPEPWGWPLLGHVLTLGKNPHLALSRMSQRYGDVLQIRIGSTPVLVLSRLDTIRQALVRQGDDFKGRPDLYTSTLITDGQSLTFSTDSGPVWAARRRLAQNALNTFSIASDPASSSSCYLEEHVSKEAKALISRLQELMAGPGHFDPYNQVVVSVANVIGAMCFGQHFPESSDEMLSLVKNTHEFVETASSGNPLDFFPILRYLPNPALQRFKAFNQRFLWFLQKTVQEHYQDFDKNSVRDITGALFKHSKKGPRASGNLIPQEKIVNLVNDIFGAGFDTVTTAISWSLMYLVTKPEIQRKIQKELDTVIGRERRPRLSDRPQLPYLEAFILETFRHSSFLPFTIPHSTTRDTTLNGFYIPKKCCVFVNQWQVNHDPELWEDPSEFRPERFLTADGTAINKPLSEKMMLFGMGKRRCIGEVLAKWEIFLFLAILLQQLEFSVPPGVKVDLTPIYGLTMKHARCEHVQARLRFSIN

Cytochrome P450 2C19 = Cytochrome P450 2C19 (Homo sapiens, UniProt P33261); conditions: bti-tn-5b1-4; also: in other assays of this panel Not Active means under 50% inhibition at 10 µM
Cytochrome P450 2C9 = Cytochrome P450 2C9 (Homo sapiens, UniProt P11712); conditions: bti-tn-5b1-4; also: in other assays of this panel Not Active means under 50% inhibition at 10 µM
Cytochrome P450 2D6 = Cytochrome P450 2D6 (Homo sapiens, UniProt P10635); conditions: bti-tn-5b1-4; also: in other assays of this panel Not Active means under 50% inhibition at 10 µM
Cytochrome P450 3A4 = Cytochrome P450 3A4 (Homo sapiens, UniProt P08684); conditions: bti-tn-5b1-4; also: in other assays of this panel Not Active means under 50% inhibition at 10 µM
Estrogen receptor = target: T2, Estrogen receptor (Homo sapiens, UniProt P03372); conditions: sf9; also: in other assays of this panel Not Active means under 50% inhibition at 10 µM
T2 sequence (P03372 whole entry): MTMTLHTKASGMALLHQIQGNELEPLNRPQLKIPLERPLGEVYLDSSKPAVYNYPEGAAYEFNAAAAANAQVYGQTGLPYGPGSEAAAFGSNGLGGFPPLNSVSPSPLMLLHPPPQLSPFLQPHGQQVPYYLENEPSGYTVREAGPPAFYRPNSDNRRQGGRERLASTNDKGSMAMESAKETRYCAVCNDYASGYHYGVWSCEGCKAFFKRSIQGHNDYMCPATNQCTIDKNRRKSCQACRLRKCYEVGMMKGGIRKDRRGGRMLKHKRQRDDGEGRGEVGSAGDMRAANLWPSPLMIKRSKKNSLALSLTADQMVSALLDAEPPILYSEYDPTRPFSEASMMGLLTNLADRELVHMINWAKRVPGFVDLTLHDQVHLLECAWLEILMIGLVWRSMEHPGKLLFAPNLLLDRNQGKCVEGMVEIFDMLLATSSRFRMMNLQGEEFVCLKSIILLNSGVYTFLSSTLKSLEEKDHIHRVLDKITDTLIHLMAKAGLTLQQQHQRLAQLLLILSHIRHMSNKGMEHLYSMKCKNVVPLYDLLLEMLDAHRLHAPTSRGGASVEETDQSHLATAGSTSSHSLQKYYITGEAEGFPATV

Estrogen receptor beta = Estrogen receptor beta (Homo sapiens, UniProt Q92731); conditions: sf9; also: in other assays of this panel Not Active means under 50% inhibition at 10 µM
Glucocorticoid receptor = target: T3, Glucocorticoid receptor (Homo sapiens, UniProt P04150); conditions: hela s3; also: in other assays of this panel Not Active means under 50% inhibition at 10 µM
T3 sequence (P04150 whole entry): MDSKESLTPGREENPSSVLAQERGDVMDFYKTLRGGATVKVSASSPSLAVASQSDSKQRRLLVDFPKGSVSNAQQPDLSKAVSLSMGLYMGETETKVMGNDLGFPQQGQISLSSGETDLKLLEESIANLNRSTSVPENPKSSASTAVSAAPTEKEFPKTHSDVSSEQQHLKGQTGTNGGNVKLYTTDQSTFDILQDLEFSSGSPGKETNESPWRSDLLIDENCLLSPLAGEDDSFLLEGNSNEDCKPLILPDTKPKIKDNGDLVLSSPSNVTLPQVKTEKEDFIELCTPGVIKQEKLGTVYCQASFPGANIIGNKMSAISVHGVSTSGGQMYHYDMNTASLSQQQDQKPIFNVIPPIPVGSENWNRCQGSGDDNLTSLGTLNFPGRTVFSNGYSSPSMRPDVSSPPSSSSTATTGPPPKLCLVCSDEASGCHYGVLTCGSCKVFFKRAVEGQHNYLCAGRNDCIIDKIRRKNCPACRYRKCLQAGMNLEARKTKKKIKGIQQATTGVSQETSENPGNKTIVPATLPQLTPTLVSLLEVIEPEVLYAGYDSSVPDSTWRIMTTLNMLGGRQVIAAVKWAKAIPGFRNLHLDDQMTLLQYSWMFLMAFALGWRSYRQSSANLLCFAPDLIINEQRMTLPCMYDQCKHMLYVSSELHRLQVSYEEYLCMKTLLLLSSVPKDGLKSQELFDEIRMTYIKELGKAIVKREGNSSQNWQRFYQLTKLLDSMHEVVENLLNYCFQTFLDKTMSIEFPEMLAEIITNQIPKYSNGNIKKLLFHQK

[2] = target: Voltage-gated inwardly rectifying potassium channel KCNH2 (Homo sapiens, UniProt Q12809); conditions: hek293; also: in other assays of this panel Not Active means under 50% inhibition at 10 µM
Chain of Voltage-gated inwardly rectifying potassium channel KCNH2 (Q12809 whole entry): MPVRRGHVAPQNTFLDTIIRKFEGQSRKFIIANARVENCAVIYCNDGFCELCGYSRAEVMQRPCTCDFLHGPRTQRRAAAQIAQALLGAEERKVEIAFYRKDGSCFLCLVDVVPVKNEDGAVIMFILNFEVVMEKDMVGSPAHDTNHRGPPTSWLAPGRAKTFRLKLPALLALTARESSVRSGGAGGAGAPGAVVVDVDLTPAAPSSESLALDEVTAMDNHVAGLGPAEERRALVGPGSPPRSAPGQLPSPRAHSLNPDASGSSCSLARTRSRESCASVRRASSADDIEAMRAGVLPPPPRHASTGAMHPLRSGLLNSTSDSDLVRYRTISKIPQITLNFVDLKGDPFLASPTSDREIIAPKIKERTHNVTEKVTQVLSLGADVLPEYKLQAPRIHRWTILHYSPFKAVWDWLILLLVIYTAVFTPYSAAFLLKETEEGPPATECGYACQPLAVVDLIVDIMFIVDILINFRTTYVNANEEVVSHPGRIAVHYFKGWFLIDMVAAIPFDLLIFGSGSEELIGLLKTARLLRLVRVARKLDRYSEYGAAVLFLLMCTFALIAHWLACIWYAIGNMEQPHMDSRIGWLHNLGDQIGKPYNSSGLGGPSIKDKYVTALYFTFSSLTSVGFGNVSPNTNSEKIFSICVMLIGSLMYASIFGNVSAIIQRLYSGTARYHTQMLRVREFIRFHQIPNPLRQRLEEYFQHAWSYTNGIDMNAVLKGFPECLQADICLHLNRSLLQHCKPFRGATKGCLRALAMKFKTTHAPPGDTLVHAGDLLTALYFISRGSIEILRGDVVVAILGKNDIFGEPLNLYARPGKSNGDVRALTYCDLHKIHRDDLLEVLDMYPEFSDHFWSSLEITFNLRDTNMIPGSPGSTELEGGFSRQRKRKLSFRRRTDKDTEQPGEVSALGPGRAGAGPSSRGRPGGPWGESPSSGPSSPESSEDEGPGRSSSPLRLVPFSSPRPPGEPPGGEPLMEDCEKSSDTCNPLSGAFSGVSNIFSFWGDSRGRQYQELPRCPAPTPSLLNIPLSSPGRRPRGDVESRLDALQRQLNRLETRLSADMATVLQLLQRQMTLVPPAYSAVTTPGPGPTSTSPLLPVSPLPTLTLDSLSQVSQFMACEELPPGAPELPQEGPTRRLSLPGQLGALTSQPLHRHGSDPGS

Chain of Cytochrome P450 2C19 (P33261 whole entry): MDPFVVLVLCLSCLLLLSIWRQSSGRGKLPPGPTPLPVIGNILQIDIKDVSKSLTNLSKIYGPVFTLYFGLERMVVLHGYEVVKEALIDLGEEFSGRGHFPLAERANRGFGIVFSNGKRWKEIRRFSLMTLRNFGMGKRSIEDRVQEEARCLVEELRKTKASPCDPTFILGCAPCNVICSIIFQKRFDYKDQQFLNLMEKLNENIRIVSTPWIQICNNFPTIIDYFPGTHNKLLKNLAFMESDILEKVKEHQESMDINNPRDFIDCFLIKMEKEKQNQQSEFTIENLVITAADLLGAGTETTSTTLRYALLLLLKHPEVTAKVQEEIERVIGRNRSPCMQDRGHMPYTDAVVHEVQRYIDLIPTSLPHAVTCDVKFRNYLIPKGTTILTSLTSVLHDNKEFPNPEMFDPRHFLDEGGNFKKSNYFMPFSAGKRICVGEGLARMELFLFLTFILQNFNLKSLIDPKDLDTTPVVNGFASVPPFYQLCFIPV
Chain of Cytochrome P450 2D6 (P10635 whole entry): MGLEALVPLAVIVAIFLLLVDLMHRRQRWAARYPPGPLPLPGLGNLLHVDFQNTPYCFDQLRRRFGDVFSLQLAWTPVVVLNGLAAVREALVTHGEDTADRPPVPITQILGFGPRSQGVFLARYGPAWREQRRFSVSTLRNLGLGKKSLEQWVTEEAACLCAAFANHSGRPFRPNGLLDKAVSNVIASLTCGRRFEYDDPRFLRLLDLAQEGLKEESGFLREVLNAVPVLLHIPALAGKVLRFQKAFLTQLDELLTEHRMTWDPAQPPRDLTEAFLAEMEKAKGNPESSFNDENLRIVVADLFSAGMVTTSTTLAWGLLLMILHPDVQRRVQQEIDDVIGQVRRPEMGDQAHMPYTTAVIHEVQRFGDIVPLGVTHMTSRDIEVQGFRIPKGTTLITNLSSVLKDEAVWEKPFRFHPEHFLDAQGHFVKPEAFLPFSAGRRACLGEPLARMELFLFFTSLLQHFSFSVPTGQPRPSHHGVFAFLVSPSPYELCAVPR
Chain of Cytochrome P450 3A4 (P08684 whole entry): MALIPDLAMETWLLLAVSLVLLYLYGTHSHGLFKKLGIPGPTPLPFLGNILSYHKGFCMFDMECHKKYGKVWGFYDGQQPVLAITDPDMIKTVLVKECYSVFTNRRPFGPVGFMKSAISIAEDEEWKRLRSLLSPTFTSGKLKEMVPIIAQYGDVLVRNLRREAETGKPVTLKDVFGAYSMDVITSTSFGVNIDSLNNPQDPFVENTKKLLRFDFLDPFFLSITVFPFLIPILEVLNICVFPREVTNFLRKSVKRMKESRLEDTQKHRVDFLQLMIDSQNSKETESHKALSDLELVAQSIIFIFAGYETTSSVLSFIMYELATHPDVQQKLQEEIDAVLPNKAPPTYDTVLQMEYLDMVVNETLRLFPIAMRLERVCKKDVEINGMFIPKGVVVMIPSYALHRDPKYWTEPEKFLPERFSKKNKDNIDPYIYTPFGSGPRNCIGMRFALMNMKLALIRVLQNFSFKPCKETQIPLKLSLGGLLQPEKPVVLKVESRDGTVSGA
Chain of Cytochrome P450 2C9 (P11712 whole entry): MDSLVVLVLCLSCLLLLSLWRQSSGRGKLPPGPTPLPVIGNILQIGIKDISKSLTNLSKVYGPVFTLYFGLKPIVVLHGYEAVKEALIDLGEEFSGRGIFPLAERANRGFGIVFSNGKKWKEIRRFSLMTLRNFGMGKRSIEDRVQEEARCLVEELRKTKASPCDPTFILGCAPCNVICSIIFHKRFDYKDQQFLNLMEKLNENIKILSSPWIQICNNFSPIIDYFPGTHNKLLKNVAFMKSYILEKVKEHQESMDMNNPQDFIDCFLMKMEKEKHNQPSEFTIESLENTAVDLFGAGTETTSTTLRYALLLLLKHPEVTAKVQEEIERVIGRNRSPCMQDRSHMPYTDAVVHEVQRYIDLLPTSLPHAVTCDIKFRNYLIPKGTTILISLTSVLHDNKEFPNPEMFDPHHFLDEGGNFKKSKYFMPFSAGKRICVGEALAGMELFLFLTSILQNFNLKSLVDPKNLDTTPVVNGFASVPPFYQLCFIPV
Chain of Sodium-dependent noradrenaline transporter (P23975 whole entry): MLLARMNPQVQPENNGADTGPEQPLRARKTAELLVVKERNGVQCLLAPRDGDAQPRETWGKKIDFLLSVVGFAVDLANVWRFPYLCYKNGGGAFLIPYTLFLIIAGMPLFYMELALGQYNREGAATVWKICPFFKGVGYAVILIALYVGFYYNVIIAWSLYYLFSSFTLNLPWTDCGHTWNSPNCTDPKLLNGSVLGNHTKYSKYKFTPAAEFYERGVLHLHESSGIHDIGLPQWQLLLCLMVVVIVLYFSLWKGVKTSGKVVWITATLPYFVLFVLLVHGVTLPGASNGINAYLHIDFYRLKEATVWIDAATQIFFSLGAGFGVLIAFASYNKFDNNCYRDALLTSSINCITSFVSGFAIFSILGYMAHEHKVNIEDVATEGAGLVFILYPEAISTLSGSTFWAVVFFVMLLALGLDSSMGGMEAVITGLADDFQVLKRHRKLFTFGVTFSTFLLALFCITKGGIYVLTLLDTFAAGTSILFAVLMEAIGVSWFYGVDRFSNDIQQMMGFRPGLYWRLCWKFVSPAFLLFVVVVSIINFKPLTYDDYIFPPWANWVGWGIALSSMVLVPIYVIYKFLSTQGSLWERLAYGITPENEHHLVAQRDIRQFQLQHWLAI
Chain of Estrogen receptor beta (Q92731 whole entry): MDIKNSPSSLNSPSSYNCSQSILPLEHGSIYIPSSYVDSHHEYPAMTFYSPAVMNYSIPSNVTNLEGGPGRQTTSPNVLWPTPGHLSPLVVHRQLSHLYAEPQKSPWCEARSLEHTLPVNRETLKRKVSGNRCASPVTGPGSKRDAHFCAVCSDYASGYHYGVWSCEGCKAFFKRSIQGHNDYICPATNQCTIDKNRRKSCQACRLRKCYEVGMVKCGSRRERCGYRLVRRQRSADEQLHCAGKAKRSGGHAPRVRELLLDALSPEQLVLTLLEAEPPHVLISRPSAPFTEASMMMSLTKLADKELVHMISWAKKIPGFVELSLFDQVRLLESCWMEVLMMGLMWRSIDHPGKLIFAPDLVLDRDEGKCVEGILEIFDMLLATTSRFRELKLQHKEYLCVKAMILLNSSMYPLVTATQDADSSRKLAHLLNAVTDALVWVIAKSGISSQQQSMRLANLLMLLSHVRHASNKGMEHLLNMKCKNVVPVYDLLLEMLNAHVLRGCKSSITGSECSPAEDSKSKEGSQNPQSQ

CC(C)[C@H](N)C(=O)OCCOCn1cnc2c(=O)nc(N)[nH]c21 [VALACYCLOVIR]
IC50 [1]: Not Active
IC50 (Cytochrome P450 1A2): Not Active
Ki (Cytochrome P450 1A2): Not Active
IC50 (Cytochrome P450 2C19): Not Active
Ki (Cytochrome P450 2C19): Not Active
IC50 (Cytochrome P450 2C9): Not Active
Ki (Cytochrome P450 2C9): Not Active
IC50 (Cytochrome P450 2D6): Not Active
Ki (Cytochrome P450 2D6): Not Active
IC50 (Cytochrome P450 3A4): Not Active
Ki (Cytochrome P450 3A4): Not Active
IC50 (Estrogen receptor): Not Active
IC50 (Estrogen receptor beta): Not Active
IC50 (Glucocorticoid receptor): Not Active
IC50 [2]: Not Active
Ki [2]: Not Active

CC1CN(c2cc3c(cc2F)c(=O)c(C(=O)O)cn3-c2ccc(F)cc2F)CCN1 (stereo not drawn) [TEMAFLOXACIN]
IC50 [1]: Not Active
IC50 (Cytochrome P450 1A2): Not Active
Ki (Cytochrome P450 1A2): Not Active
IC50 (Cytochrome P450 2C19): Not Active
Ki (Cytochrome P450 2C19): Not Active
IC50 (Cytochrome P450 2C9): Not Active
Ki (Cytochrome P450 2C9): Not Active
IC50 (Cytochrome P450 2D6): Not Active
Ki (Cytochrome P450 2D6): Not Active
IC50 (Cytochrome P450 3A4): Not Active
Ki (Cytochrome P450 3A4): Not Active
IC50 (Estrogen receptor): Not Active
IC50 (Estrogen receptor beta): Not Active
IC50 (Glucocorticoid receptor): Not Active
IC50 [2]: Not Active
Ki [2]: Not Active

IVERMECTIN
IC50 ([1]; read-out: IC50): 3.95 µM
Ki ([1]; read-out: Ki): 3.91 µM
IC50 (Cytochrome P450 1A2): Not Active
Ki (Cytochrome P450 1A2): Not Active
IC50 (Cytochrome P450 2C19): Not Active
Ki (Cytochrome P450 2C19): Not Active
IC50 (Cytochrome P450 2C9): Not Active
Ki (Cytochrome P450 2C9): Not Active
IC50 (Cytochrome P450 2D6): Not Active
Ki (Cytochrome P450 2D6): Not Active
IC50 (Cytochrome P450 3A4): Not Active
Ki (Cytochrome P450 3A4): Not Active
IC50 (Estrogen receptor): Not Active
Ki (Estrogen receptor): Not Active
IC50 (Estrogen receptor beta): Not Active
Ki (Estrogen receptor beta): Not Active
IC50 (Glucocorticoid receptor): Not Active
Ki (Glucocorticoid receptor): Not Active
IC50 [2]: Not Active
Ki [2]: Not Active

CC1(C)[C@H]2CC[C@]1(C)C(=O)C2 [(-)-CAMPHOR]
IC50 [1]: Not Active
IC50 (Cytochrome P450 1A2): Not Active
Ki (Cytochrome P450 1A2): Not Active
IC50 (Cytochrome P450 2C19): Not Active
Ki (Cytochrome P450 2C19): Not Active
IC50 (Cytochrome P450 2C9): Not Active
Ki (Cytochrome P450 2C9): Not Active
IC50 (Cytochrome P450 2D6): Not Active
Ki (Cytochrome P450 2D6): Not Active
IC50 (Cytochrome P450 3A4): Not Active
Ki (Cytochrome P450 3A4): Not Active
IC50 (Estrogen receptor): Not Active
IC50 (Estrogen receptor beta): Not Active
IC50 (Glucocorticoid receptor): Not Active
IC50 [2]: Not Active
Ki [2]: Not Active

NNC(=O)c1ccncc1 [ISONIAZID]
IC50 [1]: Not Active
IC50 (Cytochrome P450 1A2): Not Active
Ki (Cytochrome P450 1A2): Not Active
IC50 (Cytochrome P450 2C19): Not Active
Ki (Cytochrome P450 2C19): Not Active
IC50 (Cytochrome P450 2C9): Not Active
Ki (Cytochrome P450 2C9): Not Active
IC50 (Cytochrome P450 2D6): Not Active
Ki (Cytochrome P450 2D6): Not Active
IC50 (Cytochrome P450 3A4): Not Active
Ki (Cytochrome P450 3A4): Not Active
IC50 (Estrogen receptor): Not Active
IC50 (Estrogen receptor beta): Not Active
IC50 (Glucocorticoid receptor): Not Active
IC50 [2]: Not Active
Ki [2]: Not Active

CN(N=O)C(=O)N[C@@H](C=O)[C@@H](O)[C@H](O)[C@H](O)CO [STREPTOZOCIN]
IC50 [1]: Not Active
IC50 (Cytochrome P450 1A2): Not Active
Ki (Cytochrome P450 1A2): Not Active
IC50 (Cytochrome P450 2C19): Not Active
Ki (Cytochrome P450 2C19): Not Active
IC50 (Cytochrome P450 2C9): Not Active
Ki (Cytochrome P450 2C9): Not Active
IC50 (Cytochrome P450 2D6): Not Active
Ki (Cytochrome P450 2D6): Not Active
IC50 (Cytochrome P450 3A4): Not Active
Ki (Cytochrome P450 3A4): Not Active
IC50 (Estrogen receptor): Not Active
IC50 (Estrogen receptor beta): Not Active
IC50 (Glucocorticoid receptor): Not Active
IC50 [2]: Not Active
Ki [2]: Not Active

Oc1c(I)cc(I)c2cccnc12 [IODOQUINOL]
IC50 [1]: Not Active
IC50 (Cytochrome P450 1A2): Not Active
Ki (Cytochrome P450 1A2): Not Active
IC50 (Cytochrome P450 2C19): Not Active
Ki (Cytochrome P450 2C19): Not Active
IC50 (Cytochrome P450 2C9): Not Active
Ki (Cytochrome P450 2C9): Not Active
IC50 (Cytochrome P450 2D6): Not Active
Ki (Cytochrome P450 2D6): Not Active
IC50 (Cytochrome P450 3A4): Not Active
Ki (Cytochrome P450 3A4): Not Active
IC50 (Estrogen receptor): Not Active
IC50 (Estrogen receptor beta): Not Active
IC50 (Glucocorticoid receptor): Not Active
IC50 [2]: Not Active
Ki [2]: Not Active

NC(=O)c1ccccc1O [SALICYLAMIDE]
IC50 [1]: Not Active
IC50 (Cytochrome P450 1A2): Not Active
Ki (Cytochrome P450 1A2): Not Active
IC50 (Cytochrome P450 2C19): Not Active
Ki (Cytochrome P450 2C19): Not Active
IC50 (Cytochrome P450 2C9): Not Active
Ki (Cytochrome P450 2C9): Not Active
IC50 (Cytochrome P450 2D6): Not Active
Ki (Cytochrome P450 2D6): Not Active
IC50 (Cytochrome P450 3A4): Not Active
Ki (Cytochrome P450 3A4): Not Active
IC50 (Estrogen receptor): Not Active
IC50 (Estrogen receptor beta): Not Active
IC50 (Glucocorticoid receptor): Not Active
IC50 [2]: Not Active
Ki [2]: Not Active

O=[N+]([O-])c1cc([As](=O)(O)O)ccc1O [ROXARSONE]
IC50 [1]: Not Active
Ki [1]: Not Active
IC50 (Cytochrome P450 1A2): Not Active
Ki (Cytochrome P450 1A2): Not Active
IC50 (Cytochrome P450 2C19): Not Active
Ki (Cytochrome P450 2C19): Not Active
IC50 (Cytochrome P450 2C9): Not Active
Ki (Cytochrome P450 2C9): Not Active
IC50 (Cytochrome P450 2D6): Not Active
Ki (Cytochrome P450 2D6): Not Active
IC50 (Cytochrome P450 3A4): Not Active
Ki (Cytochrome P450 3A4): Not Active
IC50 (Estrogen receptor): Not Active
Ki (Estrogen receptor): Not Active
IC50 (Estrogen receptor beta): Not Active
Ki (Estrogen receptor beta): Not Active
IC50 (Glucocorticoid receptor): Not Active
Ki (Glucocorticoid receptor): Not Active
IC50 [2]: Not Active
Ki [2]: Not Active

CC(C)(C)NCC(O)c1ccc(O)c(CO)c1 (stereo not drawn) [ALBUTEROL]
IC50 [1]: Not Active
IC50 (Cytochrome P450 1A2): Not Active
Ki (Cytochrome P450 1A2): Not Active
IC50 (Cytochrome P450 2C19): Not Active
Ki (Cytochrome P450 2C19): Not Active
IC50 (Cytochrome P450 2C9): Not Active
Ki (Cytochrome P450 2C9): Not Active
IC50 (Cytochrome P450 2D6): Not Active
Ki (Cytochrome P450 2D6): Not Active
IC50 (Cytochrome P450 3A4): Not Active
Ki (Cytochrome P450 3A4): Not Active
IC50 (Estrogen receptor): Not Active
IC50 (Estrogen receptor beta): Not Active
IC50 (Glucocorticoid receptor): Not Active
IC50 [2]: Not Active
Ki [2]: Not Active
